Results: patent publication US20040063668A1, “Novel acyclic nucleoside phosphonate derivatives, salts thereof and process for the preparation of the same” (priority 2001, published 2004)
Read-outs that look alike come from different tables or passages of the source.

Assays:
Hepatitis B Virus (HBV) = experiment: Inhibition of hepatitis B virus replication in HepG2.2.15 cell culture, quantitative PCR; type: cell-based; settings: read-out: EC50(μM) in HBV
HBV = type: in vivo, HBV transgenic mice (FVB strain); settings: effect = blood does not contain HBV DNA
[1] = Determination of cytotoxicity (MTT) in HepG2.2.15 cells; settings: human
HepG2.2.15 = experiment: as above; settings: read-out: CC50(μM) in HepG2.2.15; MTT, 10th day from treatment with drug
[2] = Hepatitis B virus, 240 h, HepG2.2.15 culture medium, 10 days after treatment with drug, PCR of HBV DNA
[3] = subcutaneous, 10 mg/kg/day for 9 days

Row | SMILES | EC50 (Hepatitis B Virus (HBV); [2]) [µM] | CC50 at 10 days [1] [µM] | other results
1 | CCOc1nc(N)nc2c1ncn2CC1(OCP(=O)(O)O)CC1 [Compound 23, ({1-[(2-amino-6-ethoxy-9H-purin-9-yl)methyl]cyclopropyl}oxy)methyl phosphonic acid] | > 0.1 | > 1000 | Result: number of mice showing pharmacological effect/number of total mice (HBV; [3]): 4/4
2 | CN1CCN(c2nc(N)nc3c2ncn3CC2(OCP(=O)(O)O)CC2)CC1 [Compound 41, [(1-{[2-amino-6-(4-methyl-1-piperazinyl)-9H-purin-9-yl]methyl}cyclopropyl)oxy]methylphosphonic Acid] | > 1 | > 1000 | –
3 | CC1CC1(Cn1cnc2c(O)nc(N)nc21)OCP(=O)(O)O (stereo not drawn) [Compound 97, ({1-[(2-amino-6-hydroxy-9H-purin-9-yl)methyl]-2-methylcyclopropyl}oxy)methylphosphonic acid] | > 0.05 | > 1000 | Result: number of mice showing pharmacological effect/number of total mice (HBV; [3]): 4/4
4 | Cc1nc(N)nc2c1ncn2CC1(OCP(=O)(O)O)CC1 [Compound 25, ({1-[(2-amino-6-methyl-9H-purin-9-yl)methyl]cyclopropyl}oxy)methyl phosphonic acid] | > 5 | > 1000 | –
5 | Nc1ncnc2c1ncn2CC1(OCP(=O)(O)O)CC1 [Compound 1, ({1-[(6-amino-9H-purin-9-yl)methyl]cyclopropyl}oxy)methylphosphonic acid] | > 1 | > 1000 | –
6 | Nc1nc(O)c2ncn(CC3(OCP(=O)(O)O)CC3)c2n1 [Compound 5, ({1-[(2-amino-6-hydroxy-9H-purin-9-yl)methyl]cyclopropyl}oxy)methyl phosphonic acid] | > 0.1 | > 1000 | –
7 | Nc1nc(N2CCOCC2)c2ncn(CC3(OCP(=O)(O)O)CC3)c2n1 [Compound 37, [(1-{[2-amino-6-(4-morpholinyl)-9H-purin-9-yl]methyl}cyclopropyl)oxy]methyl phosphonic acid] | > 5 | > 1000 | –
8 | CN(C)c1nc(N)nc2c1ncn2CC1(OCP(=O)(O)O)CC1 [Compound 15, [(1-{[2-amino-6-(dimethylamino)-9H-purin-9-yl]methyl}cyclopropyl)oxy]methyl phosphonic acid] | > 0.8 | > 1000 | –
9 | Cc1ccc(Sc2nc(N)nc3c2ncn3CC2(OCP(=O)(OCC(F)(F)F)OCC(F)(F)F)CC2)cc1 [Compound 62, bis(2,2,2-trifluoroethyl){[1-({2-amino-6-[(4-methylphenyl)sulfanyl]-9H-purin-9-yl}methyl)cyclopropyl]oxy}methylphosphonate] | > 0.5 | > 1000 | –
10 | Nc1ncc2ncn(CC3(OCP(=O)(O)O)CC3)c2n1 [Compound 9, ({1-[(2-amino-9H-purin-9-yl)methyl]cyclopropyl}oxy)methylphosphonic acid] | > 0.3 | > 1000 | –
11 | Nc1nc(NC2CC2)c2ncn(CC3(OCP(=O)(O)O)CC3)c2n1 [Compound 11, ({1-[(2-amino-6-cyclopropylamino-9H-purin-9-yl)methyl]cyclopropyl}oxy)meth-ylplhosplhonic acid] | > 20 | > 1000 | –
12 | CC(C)(C)C(=O)OCOP(=O)(COC1(Cn2cnc3c(N)ncnc32)CC1)OCOC(=O)C(C)(C)C [Compound 2, 3-[({1-[(6-amino-9H-purin-9-yl)methyl]cyclopropyl}oxy)methyl]-8,8-dimethyl-3,7-dioxo-2,46-trioxa-3 ^5-phosphanon-1-yl pivalate] | > 0.1 | > 1000 | –
13 | CC(C)Nc1nc(N)nc2c1ncn2CC1(OCP(=O)(O)O)CC1 [Compound 17, [(1-{[2-amino-6-(isopropylamino)-9H-purin-9-yl]methyl}cyclopropyl)oxy]methyl phosphonic acid] | > 0.5 | > 1000 | –
14 | CC1CC1(Cn1cnc2cnc(N)nc21)OCP(=O)(O)O (stereo not drawn) [Compound 98, ({1-[(2-amino-9H-purin-9-yl)methyl]-2-methylcyclopropyl}oxy)methylphosphonic acid] | > 1 | > 1000 | Result: number of mice showing pharmacological effect/number of total mice (HBV; [3]): 4/4
15 | Cc1cn(CC2(OCP(=O)(O)O)CC2)c(=O)[nH]c1=O [Compound 31, [(1-{[5-methyl-2,4-dioxo-3,4-dihydro-1(2H)-pyrimnidinyl]methyl}cyclopropyl)oxy]methylphosphonic acid] | > 50 | > 1000 | –
16 | Nc1nc(O)c2ncn(CC3(OCP(=O)(OCC(F)(F)F)OCC(F)(F)F)CC3)c2n1 [Compound 45, bis(2,2,2-trifluoroethyl)({1-[(2-amino-6-hydroxy-9H-purin-9-yl)methyl]cyclopropyl}oxy)methylphosphonate] | > 0.5 | > 1000 | –
17 | Nc1ncnc2c1ncn2CCOCP(=O)(O)O [PMEA, reference compound] | – | – | EC50 (Hepatitis B Virus (HBV); HepG2.2.15 culture medium, 10 days after treatment with drug, PCR of HBV DNA): 5 µM; CC50 (HepG2.2.15): > 500 µM
18 | Nc1nc(N)c2ncn(CC3(OCP(=O)(O)O)CC3)c2n1 [Compound 19, ({1-[(2,6-diamino-9H-purin-9-yl)methyl]cyclopropyl}oxy)methylphosphonic acid] | > 0.3 | > 1000 | –
19 | Nc1nc(Cl)c2ncn(CC3(OCP(=O)(OCC(F)(F)F)OCC(F)(F)F)CC3)c2n1 [Compound 46, bis(2,2,2-trifluoroethyl)({1-[(2-amino-6-chloro-9H-purin-9-yl)methyl]cyclopropyl}oxy)methylphosphonate] | > 1 | > 1000 | –
20 | Nc1nc(Cl)c2ncn(CC3(OCP(=O)(O)O)CC3)c2n1 [Compound 3, ({1-[(2-amino-6-chloro-9H-purin-9-yl)methyl]cyclopropyl}oxy)methylphosphonic acid] | > 0.5 | > 1000 | –
21 | CC(C)(C)OC(=O)OCOP(=O)(COC1(Cn2cnc3cnc(N)nc32)CC1)OCOC(=O)OC(C)(C)C [Compound 69, bis{[(t-butoxycarbonyl)oxy]methyl}({1-[(2-amino-9H-purin-9-yl)methyl]cyclopropyl}oxy)methylphosphonate] | > 1 | > 1000 | –
22 | Cc1ccc(Sc2nc(N)nc3c2ncn3CC2(OCP(=O)(O)O)CC2)cc1 [Compound 66, {[1-({2-amino-6-[(4-methylphenyl)sulfanyl]-9H-purin-9-yl}methyl)cyclopropyl]oxy}methylphosphonic acid] | > 0.1 | > 1000 | Result: number of mice showing pharmacological effect/number of total mice (HBV; [3]): 4/4
23 | CCNc1nc(N)nc2c1ncn2CC1(OCP(=O)(O)O)CC1 [Compound 13, ({1-[(2-amino-6-ethylamino-9H-purin-9-yl)methyl]cyclopropyl}oxy)methylphosphonic Acid] | > 1 | > 1000 | –
24 | CC(C)(C)C(=O)OCOP(=O)(COC1(Cn2cnc3cnc(N)nc32)CC1)OCOC(=O)C(C)(C)C [Compound 10, 3-[({1-[(2-amino-9H-purin-9-yl)methyl]cyclopropyl}oxy)methyl]-8,8-dimethyl-3,7-dioxo-2,4,6-trioxa-3 ^5-phosphanon-1-yl pivalate] | – | > 1000 | EC50 (Hepatitis B Virus (HBV); Hepatitis B virus, HepG2.2.15, 240 h): > 0.08 µM; Result: number of mice showing pharmacological effect/number of total mice (HBV; oral, 0.4 mg/kg/day for 9 days): 5/6; Result: number of mice showing pharmacological effect/number of total mice (HBV; oral, 2 mg/kg/day for 9 days): 4/4
